Results: PubChem BioAssay AID1259411 (Chemical Carcinogenesis Research Information System (CCRIS), 2018)
Calls of active or inactive are those of the source. The rule behind the calls is not given here.

Test system: rodent carcinogenicity bioassays, tumor incidence
Assay: CCRIS carcinogenicity studies
Details: Dose: 0, Dose: 0
How it was run: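 Archive of carcinogenicity, mutagenicity, tumor promotion and tumor inhibition results drawn from journals, NCI reports and other sources, expert-reviewed; covers 1985-2011 and is no longer updated.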

Compound: CCN(CC)CC#CC(C)(C)OC(=O)C(O)(c1ccccc1)C1CCCCC1 (stereo not drawn)
- carcinogen call (Species: MOUSE, Strain/Sex: B6C3F1/FEMALE, Route: ORAL, 30, 100, 300 MG/KG/D IN DIET FOR 78 WK (STUDY DURATION: 78 WK), 30, 100, 300 MG/KG/D IN DIET FOR 78 WK (STUDY DURATION: 78 WK)): inactive; negative
- carcinogen call (Species: MOUSE, Strain/Sex: B6C3F1/MALE, Route: ORAL, 30, 100, 300 MG/KG/D IN DIET FOR 78 WK (STUDY DURATION: 78 WK), 30, 100, 300 MG/KG/D IN DIET FOR 78 WK (STUDY DURATION: 78 WK)): inactive; negative
- carcinogen call (Species: RAT, Strain/Sex: F344/FEMALE, Route: ORAL, 30, 100 MG/KG/D IN DIET FOR 2 YR (STUDY DURATION: 2 YR), 30, 100 MG/KG/D IN DIET FOR 2 YR (STUDY DURATION: 2 YR)): inactive; negative
- carcinogen call (Species: RAT, Strain/Sex: F344/MALE, Route: ORAL, 10, 30, 100 MG/KG/D IN DIET FOR 2 YR (STUDY DURATION: 2 YR), 10, 30, 100 MG/KG/D IN DIET FOR 2 YR (STUDY DURATION: 2 YR)): inactive; negative

Compound: CC1=C[C@]2(O[C@@H]3O[C@H](CO)[C@@H](O)[C@H](O)[C@H]3O)C[C@@H](C)C(=O)[C@@H]2[C@](C)(O)C12CC2
- carcinogen call (Species: RAT, Strain/Sex: CD-1/FEMALE, Route: INTRAGASTRIC, 100-150 MG/KG BW IN SALINE 2/WK FOR 8 WK THEN ONCE ON WK 9 (TOTAL DOSE: 0; 339 MG) (STUDY DURATION: 300 D), 100-150 MG/KG BW IN SALINE 2/WK FOR 8 WK THEN ONCE ON WK 9 (TOTAL DOSE: 0; 339 MG) (STUDY DURATION: 300 D), Tumor Site: Type of Lesion: MAMMARY GLAND: ADENOCARCINOMA, CARCINOMA, SMALL INTESTINE: ADENOCARCINOMA, BLADDER: PAPILLOMA, Tumor Site: Type of Lesion: MAMMARY GLAND: ADENOCARCINOMA, CARCINOMA, SMALL INTESTINE: ADENOCARCINOMA, BLADDER: PAPILLOMA): active; positive
- carcinogen call (Species: RAT, Strain/Sex: CD-1/FEMALE, Route: INTRAGASTRIC, 780 MG/KG BW IN SALINE ONCE THEN 0, 100-200 MG/KG 1/WK FOR 8 WK (TOTAL DOSE: 0; 300 MG) (STUDY DURATION: 300 D), 780 MG/KG BW IN SALINE ONCE THEN 0, 100-200 MG/KG 1/WK FOR 8 WK (TOTAL DOSE: 0; 300 MG) (STUDY DURATION: 300 D), Tumor Site: Type of Lesion: MAMMARY GLAND: ADENOCARCINOMA, CARCINOMA, SMALL INTESTINE: ADENOCARCINOMA): active; positive

Compound: Cc1ccccc1
- carcinogen call (Species: MOUSE, Strain/Sex: B6C3F1/FEMALE, Route: INHALATION, 120, 600, 1200 PPM 6.5 HR/D 5 D/WK FOR 103 WK (STUDY DURATION: 104 WK), 120, 600, 1200 PPM 6.5 HR/D 5 D/WK FOR 103 WK (STUDY DURATION: 104 WK)): inactive; negative
- carcinogen call (Species: MOUSE, Strain/Sex: B6C3F1/MALE, Route: INHALATION, 120, 600, 1200 PPM 6.5 HR/D 5 D/WK FOR 103 WK (STUDY DURATION: 104 WK), 120, 600, 1200 PPM 6.5 HR/D 5 D/WK FOR 103 WK (STUDY DURATION: 104 WK)): inactive; negative
- carcinogen call (Species: RAT, Strain/Sex: F344/FEMALE, Route: INHALATION, 600, 1200 PPM 6.5 HR/D 5 D/WK FOR 103 WK (STUDY DURATION: 104 WK), 600, 1200 PPM 6.5 HR/D 5 D/WK FOR 103 WK (STUDY DURATION: 104 WK)): inactive; negative
- carcinogen call (Species: RAT, Strain/Sex: F344/MALE, Route: INHALATION, 600, 1200 PPM 6.5 HR/D 5 D/WK FOR 103 WK (STUDY DURATION: 104 WK), 600, 1200 PPM 6.5 HR/D 5 D/WK FOR 103 WK (STUDY DURATION: 104 WK)): inactive; negative
- carcinogen call (Species: RAT, Strain/Sex: STRAIN-CD/MALE, Route: INTRAGASTRIC, 500 MG/KG IN OLIVE OIL 1/D 4-5 D/WK FOR 104 WK (STUDY DURATION: 104 WK)): inactive; negative

Compound: c1ccc2c(c1)ccc1cc3c4c(ccc3cc12)CCCC4
- carcinogen call (Species: MOUSE, Strain/Sex: SWISS/FEMALE, Route: DERMAL, 32 UG AS 0.2% SOLUTION IN ACETONE APPLIED TO INTERSCAPULAR REGION 2/WK FOR 50 WK (STUDY DURATION: 60 WK), Tumor Site: Type of Lesion: SKIN: CARCINOMA): active; positive

Compound: NC(=O)N(CCc1ccccc1)N=O
- carcinogen call (Species: RAT, Strain/Sex: F344/FEMALE, Route: GAVAGE, 20 MG/ML (TOTAL DOSE 0; 0.9 MMOL) IN 2 ML ETHYL ACETATE AND CORN OIL (1:2) 2/WK FOR 22 WK (STUDY DURATION: LIFETIME), 20 MG/ML (TOTAL DOSE 0; 0.9 MMOL) IN 2 ML ETHYL ACETATE AND CORN OIL (1:2) 2/WK FOR 22 WK (STUDY DURATION: LIFETIME), Tumor Site: Type of Lesion: LIVER: TUMOR, FORESTOMACH: SQUAMOUS CELL CARCINOMA): active; positive
- carcinogen call (Species: RAT, Strain/Sex: F344/FEMALE, Route: GAVAGE, 20 MG/ML IN 0.2 ML ETHYL ACETATE AND CORN OIL 2/WK FOR 22 WK (STUDY DURATION: LIFESPAN), Tumor Site: Type of Lesion: FORESTOMACH: TUMOR, LIVER: TUMOR): active; positive
- carcinogen call (Species: RAT, Strain/Sex: F344/MALE, Route: GAVAGE, 20 MG/ML (TOTAL DOSE 0; 0.9 MMOL) IN 2 ML ETHYL ACETATE AND CORN OIL (1:2) 2/WK FOR 22 WK (STUDY DURATION: LIFETIME), 20 MG/ML (TOTAL DOSE 0; 0.9 MMOL) IN 2 ML ETHYL ACETATE AND CORN OIL (1:2) 2/WK FOR 22 WK (STUDY DURATION: LIFETIME), Tumor Site: Type of Lesion: LIVER: TUMOR, FORESTOMACH: SQUAMOUS CELL CARCINOMA): active; positive
- carcinogen call (Species: RAT, Strain/Sex: F344/MALE, Route: GAVAGE, 20 MG/ML IN 0.2 ML ETHYL ACETATE AND CORN OIL 2/WK FOR 22 WK (STUDY DURATION: LIFESPAN), Tumor Site: Type of Lesion: FORESTOMACH: TUMOR, LIVER: TUMOR, DUODENUM: TUMOR, Tumor Site: Type of Lesion: FORESTOMACH: TUMOR, LIVER: TUMOR, DUODENUM: TUMOR): active; positive

Compound: [Cl][Sn][Cl]
- carcinogen call (Species: MOUSE, Strain/Sex: B6C3F1/FEMALE, Route: ORAL, 1000, 2000 PPM IN DIET FOR 105 WK (STUDY DURATION: 105 WK), 1000, 2000 PPM IN DIET FOR 105 WK (STUDY DURATION: 105 WK)): inactive; negative
- carcinogen call (Species: MOUSE, Strain/Sex: B6C3F1/MALE, Route: ORAL, 1000, 2000 PPM IN DIET FOR 105 WK (STUDY DURATION: 105 WK), 1000, 2000 PPM IN DIET FOR 105 WK (STUDY DURATION: 105 WK)): inactive; negative
- carcinogen call (Species: RAT, Strain/Sex: F344/FEMALE, Route: ORAL, 1000, 2000 PPM IN DIET FOR 105 WK (STUDY DURATION: 105 WK), 1000, 2000 PPM IN DIET FOR 105 WK (STUDY DURATION: 105 WK)): inactive; negative
- carcinogen call (Species: RAT, Strain/Sex: F344/MALE, Route: ORAL, 1000, 2000 PPM IN DIET FOR 105 WK (STUDY DURATION: 105 WK), 1000, 2000 PPM IN DIET FOR 105 WK (STUDY DURATION: 105 WK), Tumor Site: Type of Lesion: THYROID GLAND: C-CELL ADENOMA, C-CELL ADENOMA OR CARCINOMA): equivocal

Compound: C[N+](C)(C)NCCC(=O)[O-]
- carcinogen call (Species: MOUSE, Strain/Sex: B6D2F1/FEMALE, Route: GAVAGE, 400, 4000 MG/KG BW IN 0.2 ML WATER 3X/WK FOR 22 MONTHS (STUDY DURATION: 22 MONTHS), 400, 4000 MG/KG BW IN 0.2 ML WATER 3X/WK FOR 22 MONTHS (STUDY DURATION: 22 MONTHS)): inactive; negative
- carcinogen call (Species: MOUSE, Strain/Sex: C3H/FEMALE, Route: ORAL, 0.1% IN DRINKING WATER FOR LIFETIME (STUDY DURATION: LIFETIME)): inactive; negative
- carcinogen call (Species: MOUSE, Strain/Sex: SHR/FEMALE, Route: SUBCUTANEOUS, 0.1 MG IN ISOTONIC SALINE 1X/D FOR 5 D WITH 4-WK INTERVALS FOR LIFETIME (STUDY DURATION: LIFETIME)): inactive; negative
